# Measurements reported in US20230242591A1, “REGULATORY T CELL EPITOPES AND D[…]-COV-2 ANTIGENS” (EPIVAX, INC., priority 2020, published 2023).
# System: CD4+ effector memory T cells
# Assay type: cell-based, human
sequence,measurement,value
PSFYVYSRVKNLNSSRVPDLLV (Severe acute respiratory syndrome coronavirus 2) [SEQ ID NO: 7],suppression of proliferation and activation of CD4+ effector T cells,Suppressed Proliferation and Activation
